Test results: patent US4027039A (priority 1975, dated 1977)
Where a name gives a salt, the structure may show the parent alone.

Test system: Influenza, Ann Arbor virus
Test: Influenza Ann Arbor in mice, oral; schedule by table; late read day 5 (Tables 15, 25, 29, 30), 6 (18, 20, 22, 23, 26, 27, 28, 54), 7 (14, 19, 21, 24, 53, 56), 8 (16, 17, 51), 9 (11, 55)
Assay type: in vivo, mouse
Details: for Toxic: oral, mouse

Cc1ccccc1NC(=S)NN=C1CCCC1 [cyclopentanone, 3-thio-4-o-tolyl-semicarbazone]
No. animals surviving after 5-7 days (total dose 30 pg): 6 | Survivors (total dose 30 pg): 0 | No. animals surviving after 5-7 days (total dose 300 pg): 9 | Survivors (total dose 300 pg): 0 | No. animals surviving after 5-7 days (total dose 3 ng): 9 | Survivors (total dose 3 ng): 0 | No. animals surviving after 5-7 days (total dose 30 ng): 9 | No. animals surviving after 5-7 days (total dose 300 ng): 6 | Survivors (total dose 300 ng): 0 | No. animals surviving after 5-7 days (total dose 3 μg): 6 | Survivors (total dose 3 μg): 0 | Survivors (total dose 30 μg): 0 | No. animals surviving after 5-7 days (total dose 300 μg): 9 | Survivors (total dose 300 μg): 0 | No. animals surviving after 5-7 days (total dose 3 mg): 8 | Survivors (total dose 3 mg): 0

C=CCNC(=S)NN=C1Cc2ccccc2C1 [2-Indanone, 4-allylthiosemicarbazone]
No. animals surviving after 5-7 days (total dose 30 pg): 4 | Survivors (total dose 30 pg): 0 | No. animals surviving after 5-7 days (total dose 300 pg): 7 | Survivors (total dose 300 pg): 0 | No. animals surviving after 5-7 days (total dose 3 ng): 4 | Survivors (total dose 3 ng): 0 | No. animals surviving after 5-7 days (total dose 30 ng): 6 | Survivors (total dose 30 ng): 0 | No. animals surviving after 5-7 days (total dose 300 ng): 6 | Survivors (total dose 300 ng): 0 | No. animals surviving after 5-7 days (total dose 3 μg): 2 | Survivors (total dose 3 μg): 0 | No. animals surviving after 5-7 days (total dose 30 μg): 6 | Survivors (total dose 30 μg): 0 | No. animals surviving after 5-7 days (total dose 300 μg): 2 | Survivors (total dose 300 μg): 0 | No. animals surviving after 5-7 days (total dose 3 mg): 4 | Survivors (total dose 3 mg): 1

NC(=S)NN=C1Cc2ccccc2C1 [2-indanone, thiosemicarbazone]
No. animals surviving after 5-7 days (total dose 30 pg): 8 | Survivors (total dose 30 pg): 1 | No. animals surviving after 5-7 days (total dose 300 pg): 8 | Survivors (total dose 300 pg): 0 | No. animals surviving after 5-7 days (total dose 3 ng): 5 | Survivors (total dose 3 ng): 0 | No. animals surviving after 5-7 days (total dose 30 ng): 9 | Survivors (total dose 30 ng): 0 | No. animals surviving after 5-7 days (total dose 300 ng): 8 | Survivors (total dose 300 ng): 1 | No. animals surviving after 5-7 days (total dose 3 μg): 8 | Survivors (total dose 3 μg): 1 | No. animals surviving after 5-7 days (total dose 30 μg): 8 | Survivors (total dose 30 μg): 0 | No. animals surviving after 5-7 days (total dose 300 μg): 6 | Survivors (total dose 300 μg): 0 | Toxic (total dose 3 mg): Toxic

CCC(CC)=NNC(N)=S [3-pentanone, thiosemicarbazone]
No. animals surviving after 5-7 days (total dose 30 pg): 2 | Survivors (total dose 30 pg): 0 | No. animals surviving after 5-7 days (total dose 300 pg): 1 | Survivors (total dose 300 pg): 0 | No. animals surviving after 5-7 days (total dose 3 ng): 3 | Survivors (total dose 3 ng): 0 | No. animals surviving after 5-7 days (total dose 30 ng): 0 | Survivors (total dose 30 ng): 0 | No. animals surviving after 5-7 days (total dose 300 ng): 3 | Survivors (total dose 300 ng): 0 | No. animals surviving after 5-7 days (total dose 3 μg): 6 | Survivors (total dose 3 μg): 1 | No. animals surviving after 7 days (total dose 12 μg): 1 | Survivors (total dose 12 μg): 0 | No. animals surviving after 7 days (total dose 18 μg): 1 | Survivors (total dose 18 μg): 1 | No. animals surviving after 7 days (total dose 24 μg): 0 | Survivors (total dose 24 μg): 0 | No. animals surviving after 5-7 days (total dose 30 μg): 7 | Survivors (total dose 30 μg): 0 | No. animals surviving after 7 days (total dose 60 μg): 1 | Survivors (total dose 60 μg): 0 | No. animals surviving after 7 days (total dose 90 μg): 3 | Survivors (total dose 90 μg): 0 | No. animals surviving after 7 days (total dose 120 μg): 1 | Survivors (total dose 120 μg): 1 | No. animals surviving after 7 days (total dose 150 μg): 2 | Survivors (total dose 150 μg): 1 | No. animals surviving after 5-7 days (total dose 300 μg): 4 | Survivors (total dose 300 μg): 0

CCOC(=O)CC(C)=NNC(N)=S [acetoacetic acid, ethyl ester, thiosemicarbazone]
No. animals surviving after 5-7 days (total dose 30 pg): 8 | Survivors (total dose 30 pg): 0 | No. animals surviving after 5-7 days (total dose 300 pg): 4 | Survivors (total dose 300 pg): 0 | No. animals surviving after 5-7 days (total dose 3 ng): 5 | Survivors (total dose 3 ng): 0 | No. animals surviving after 5-7 days (total dose 30 ng): 5 | Survivors (total dose 30 ng): 0 | No. animals surviving after 5-7 days (total dose 300 ng): 4 | Survivors (total dose 300 ng): 0 | No. animals surviving after 5-7 days (total dose 3 μg): 6 | Survivors (total dose 3 μg): 0 | No. animals surviving after 5-7 days (total dose 30 μg): 8 | Survivors (total dose 30 μg): 0 | No. animals surviving after 5-7 days (total dose 300 μg): 7 | Survivors (total dose 300 μg): 0 | No. animals surviving after 5-7 days (total dose 3 mg): 5 | Survivors (total dose 3 mg): 0

CNN [Methylhydrazine, methylhydrazine]
No. animals surviving after 5-7 days (total dose 30 pg): 2 | Survivors (total dose 30 pg): 1 | No. animals surviving after 5-7 days (total dose 300 pg): 3 | Survivors (total dose 300 pg): 0 | No. animals surviving after 5-7 days (total dose 3 ng): 3 | Survivors (total dose 3 ng): 1 | No. animals surviving after 5-7 days (total dose 30 ng): 4 | Survivors (total dose 30 ng): 1 | No. animals surviving after 5-7 days (total dose 300 ng): 1 | Survivors (total dose 300 ng): 0 | No. animals surviving after 5-7 days (total dose 3 μg): 3 | Survivors (total dose 3 μg): 0 | No. animals surviving after 5-7 days (total dose 30 μg): 3 | Survivors (total dose 30 μg): 1 | No. animals surviving after 5-7 days (total dose 300 μg): 1 | Survivors (total dose 300 μg): 0 | Toxic (total dose 3 mg): Toxic

NC(N)=NN=Cc1c(Cl)cccc1Cl [[(2,6-dichlorobenzylidine)amino]guanidine acetate]
No. animals surviving after 5-7 days (total dose 30 pg): 4 | Survivors (total dose 30 pg): 0 | No. animals surviving after 5-7 days (total dose 300 pg): 2 | Survivors (total dose 300 pg): 1 | No. animals surviving after 5-7 days (total dose 3 ng): 4 | Survivors (total dose 3 ng): 0 | No. animals surviving after 5-7 days (total dose 30 ng): 1 | Survivors (total dose 30 ng): 0 | No. animals surviving after 5-7 days (total dose 300 ng): 1 | Survivors (total dose 300 ng): 0 | No. animals surviving after 5-7 days (total dose 3 μg): 2 | Survivors (total dose 3 μg): 0 | No. animals surviving after 5-7 days (total dose 30 μg): 3 | Survivors (total dose 30 μg): 0 | No. animals surviving after 5-7 days (total dose 300 μg): 1 | Survivors (total dose 300 μg): 0 | Toxic (total dose 3 mg): Toxic

CN(C)N [1,1-dimethylhydrazine]
No. animals surviving after 5-7 days (total dose 30 pg): 5 | Survivors (total dose 30 pg): 0 | No. animals surviving after 5-7 days (total dose 300 pg): 3 | Survivors (total dose 300 pg): 0 | No. animals surviving after 5-7 days (total dose 3 ng): 3 | Survivors (total dose 3 ng): 1 | No. animals surviving after 5-7 days (total dose 30 ng): 2 | Survivors (total dose 30 ng): 0 | No. animals surviving after 5-7 days (total dose 300 ng): 3 | Survivors (total dose 300 ng): 0 | No. animals surviving after 5-7 days (total dose 3 μg): 2 | Survivors (total dose 3 μg): 0 | No. animals surviving after 5-7 days (total dose 30 μg): 1 | Survivors (total dose 30 μg): 1 | No. animals surviving after 5-7 days (total dose 300 μg): 3 | Survivors (total dose 300 μg): 0 | No. animals surviving after 5-7 days (total dose 3 mg): 2 | Survivors (total dose 3 mg): 0

NC(N)=S [Thiourea]
No. animals surviving after 5-7 days (total dose 30 pg): 2 | Survivors (total dose 30 pg): 0 | No. animals surviving after 5-7 days (total dose 300 pg): 4 | Survivors (total dose 300 pg): 0 | No. animals surviving after 5-7 days (total dose 3 ng): 3 | Survivors (total dose 3 ng): 1 | No. animals surviving after 5-7 days (total dose 30 ng): 4 | Survivors (total dose 30 ng): 0 | No. animals surviving after 5-7 days (total dose 300 ng): 2 | Survivors (total dose 300 ng): 0 | No. animals surviving after 5-7 days (total dose 3 μg): 7 | Survivors (total dose 3 μg): 0 | No. animals surviving after 5-7 days (total dose 30 μg): 3 | Survivors (total dose 30 μg): 0 | No. animals surviving after 5-7 days (total dose 300 μg): 6 | Survivors (total dose 300 μg): 1 | No. animals surviving after 5-7 days (total dose 3 mg): 5 | Survivors (total dose 3 mg): 0

CC(C)=NNC(N)=S [acetone, thiosemicarbazone]
No. animals surviving after 5-7 days (total dose 30 pg): 3 | Survivors (total dose 30 pg): 1 | No. animals surviving after 5-7 days (total dose 300 pg): 2 | Survivors (total dose 300 pg): 0 | No. animals surviving after 5-7 days (total dose 3 ng): 2 | Survivors (total dose 3 ng): 0 | No. animals surviving after 5-7 days (total dose 30 ng): 2 | Survivors (total dose 30 ng): 0 | No. animals surviving after 5-7 days (total dose 300 ng): 3 | Survivors (total dose 300 ng): 0 | No. animals surviving after 5-7 days (total dose 3 μg): 5 | Survivors (total dose 3 μg): 0 | No. animals surviving after 5-7 days (total dose 30 μg): 2 | Survivors (total dose 30 μg): 0 | No. animals surviving after 5-7 days (total dose 300 μg): 3 | Survivors (total dose 300 μg): 0

CNNC [1,2-dimethylhydrazine, dihydrochloride]
No. animals surviving after 5-7 days (total dose 30 pg): 6 | Survivors (total dose 30 pg): 1 | No. animals surviving after 5-7 days (total dose 300 pg): 2 | Survivors (total dose 300 pg): 0 | No. animals surviving after 5-7 days (total dose 3 ng): 3 | Survivors (total dose 3 ng): 0 | No. animals surviving after 5-7 days (total dose 30 ng): 3 | Survivors (total dose 30 ng): 1 | No. animals surviving after 5-7 days (total dose 300 ng): 5 | Survivors (total dose 300 ng): 0 | No. animals surviving after 5-7 days (total dose 3 μg): 3 | Survivors (total dose 3 μg): 0 | No. animals surviving after 5-7 days (total dose 30 μg): 4 | Survivors (total dose 30 μg): 0 | No. animals surviving after 5-7 days (total dose 300 μg): 6 | Survivors (total dose 300 μg): 0 | No. animals surviving after 5-7 days (total dose 3 mg): 3 | Survivors (total dose 3 mg): 0

CCC(C)=NNC(=N)N.O=[N+]([O-])O [1-(sec-butylideneamino)guanidine nitrate, 1-(sec-butylideneamino)guanidine, nitrate]
No. animals surviving after 5-7 days (total dose 3 ng): 0 | Survivors (total dose 3 ng): 0 | No. animals surviving after 5-7 days (total dose 30 ng): 1 | Survivors (total dose 30 ng): 0 | No. animals surviving after 5-7 days (total dose 300 ng): 3 | Survivors (total dose 300 ng): 2 | No. animals surviving after 5-7 days (total dose 3 μg): 0 | Survivors (total dose 3 μg): 0 | No. animals surviving after 5-7 days (total dose 30 μg): 2 | Survivors (total dose 30 μg): 2 | No. animals surviving after 5-7 days (total dose 300 μg): 0 | Survivors (total dose 300 μg): 0

CCCC(C)=NNC(N)=S [2-pentanone, thiosemicarbazone]
No. animals surviving after 5-7 days (total dose 30 pg): 2 | Survivors (total dose 30 pg): 0 | No. animals surviving after 5-7 days (total dose 300 pg): 2 | Survivors (total dose 300 pg): 0 | No. animals surviving after 5-7 days (total dose 3 ng): 2 | Survivors (total dose 3 ng): 0 | No. animals surviving after 7 days (total dose 15 ng): 3 | Survivors (total dose 15 ng): 0 | No. animals surviving after 7 days (total dose 22.5 ng): 0 | Survivors (total dose 22.5 ng): 0 | No. animals surviving after 5-7 days (total dose 30 ng): 2 | Survivors (total dose 30 ng): 0 | No. animals surviving after 7 days (total dose 75 ng): 1 | Survivors (total dose 75 ng): 0 | No. animals surviving after 7 days (total dose 150 ng): 0 | Survivors (total dose 150 ng): 0 | No. animals surviving after 7 days (total dose 225 ng): 3 | Survivors (total dose 225 ng): 0 | No. animals surviving after 5-7 days (total dose 300 ng): 1 | Survivors (total dose 300 ng): 0 | No. animals surviving after 7 days (total dose 750 ng): 2 | Survivors (total dose 750 ng): 0 | No. animals surviving after 7 days (total dose 1.5 μg): 2 | Survivors (total dose 1.5 μg): 0 | No. animals surviving after 7 days (total dose 2.25 μg): 1 | Survivors (total dose 2.25 μg): 1 | No. animals surviving after 5-7 days (total dose 3 μg): 1 | Survivors (total dose 3 μg): 0 | No. animals surviving after 5-7 days (total dose 30 μg): 1 | Survivors (total dose 30 μg): 1 | No. animals surviving after 5-7 days (total dose 300 μg): 0 | Survivors (total dose 300 μg): 0
